Where “and” joins values, the source holds several entries; their conditions need not be identical. Equal entries are not always repeated. Inconclusive results and toxic doses are left out. How the source made its calls: active means survival T/C of 150% or more; inactive means T/C below 125% in these data. Numbered stars: 1 amine (or outer) side, 2 acyl side, 3 side chain; on linkers, the order of the positions; unused ones are H or OH. Bridge positions count the residues as written; N and C are the ends. Square brackets hold non-standard residues; d marks the D form. Peptide text beside a SMILES is read from it. I, II: the chains in the order shown. Actinocin(9to1) = Cc1c2oc3c(C)ccc(C(=O)[*:1])c3nc-2c(C(=O)[*:2])c(N)c1=O; NMeV = CN[CH](C(=O)O)C(C)C; Aze = O=C(O)[CH]1CCN1; Sar = CNCC(=O)O
System: BDF1 mice, Lewis lung carcinoma iv, survival T/C
Experiment: NCI In Vivo Anticancer Drug Screen. Data for tumor model Lewis Lung Carcinoma (intravenous) in B6D2F1 (BDF1) mice
Settings: higher = longer survival
Protocol: The antitumor activity of compounds was measured in mice bearing transplantable tumors. Survival or tumor size were measured and the results are expressed as the measurement made in the treated group (T) divided by the measurement made in the vehicle treated control group (C). The tumor model used in this assay is Lewis Lung Carcinoma (intravenous) in B6D2F1 (BDF1) mice

[1] = endpoint: median survival time, dose: 3.12 mg/kg/injection, schedule: Q01DX009 (ip), vehicle: saline
[2] = endpoint: median survival time, dose: 6.25 mg/kg/injection, schedule: Q01DX009 (ip), vehicle: saline
[3] = endpoint: median survival time, dose: 12.5 mg/kg/injection, schedule: Q01DX009 (ip), vehicle: saline
[4] = endpoint: median survival time, dose: 6.25 mg/kg/injection, schedule: Q01DX009 (ip), vehicle: saline with Tween-80
[5] = endpoint: median survival time, dose: 12.5 mg/kg/injection, schedule: Q01DX009 (ip), vehicle: saline with Tween-80
[6] = endpoint: median survival time, dose: 25.0 mg/kg/injection, schedule: Q01DX009 (ip), vehicle: Klucel (hydroxypropylcellulose) (HPC)
[7] = endpoint: median survival time, dose: 25.0 mg/kg/injection, schedule: Q01DX009 (ip), vehicle: saline with Tween-80
[8] = endpoint: median survival time, dose: 50.0 mg/kg/injection, schedule: Q01DX009 (ip), vehicle: Klucel (hydroxypropylcellulose) (HPC)
[9] = endpoint: median survival time, dose: 50.0 mg/kg/injection, schedule: Q01DX009 (ip), vehicle: saline with Tween-80
[10] = endpoint: median survival time, dose: 100.0 mg/kg/injection, schedule: Q01DX009 (ip), vehicle: Klucel (hydroxypropylcellulose) (HPC)
[11] = endpoint: median survival time, dose: 100.0 mg/kg/injection, schedule: Q01DX009 (ip), vehicle: saline with Tween-80
[12] = endpoint: median survival time, dose: 200.0 mg/kg/injection, schedule: Q01DX009 (ip), vehicle: Klucel (hydroxypropylcellulose) (HPC)
[13] = endpoint: median survival time, dose: 400.0 mg/kg/injection, schedule: Q01DX009 (ip), vehicle: Klucel (hydroxypropylcellulose) (HPC)
[14] = endpoint: median survival time, dose: 0.78 mg/kg/injection, schedule: Q01DX009 (ip), vehicle: saline with Tween-80
[15] = endpoint: median survival time, dose: 1.56 mg/kg/injection, schedule: Q01DX009 (ip), vehicle: saline with Tween-80
[16] = endpoint: median survival time, dose: 3.13 mg/kg/injection, schedule: Q01DX009 (ip), vehicle: saline with Tween-80
[17] = endpoint: median survival time, dose: 25.0 mg/kg/injection, schedule: Q01DX009 (ip), vehicle: saline
[18] = endpoint: median survival time, dose: 50.0 mg/kg/injection, schedule: Q01DX009 (ip), vehicle: saline
[19] = endpoint: median survival time, dose: 100.0 mg/kg/injection, schedule: Q01DX009 (ip), vehicle: saline
[20] = endpoint: median survival time, dose: 200.0 mg/kg/injection, schedule: Q01DX009 (ip), vehicle: saline
[21] = endpoint: median survival time, dose: 400.0 mg/kg/injection, schedule: Q01DX009 (ip), vehicle: saline

Measured: T/C

Cc1c2oc3c(C)ccc(C(=O)NC4C(=O)NC(C(C)C)C(=O)N5CCC5C(=O)N(C)CC(=O)N(C)C(C(C)C)C(=O)OC4C)c3nc-2c(C(=O)NC2C(=O)NC(C(C)C)C(=O)N3CCC3C(=O)N(C)CC(=O)N(C)C(C(C)C)C(=O)OC2C)c(N)c1=O (configuration not stated) (I: TV[Aze][Sar][NMeV] / II: TV[Aze][Sar][NMeV]; ester I:1-I:C, II:1-II:C; linker I:N-II:N via Actinocin(9to1); configuration not given here)
inactive: endpoint: median survival time, dose: 194.0 micrograms/kg/injection, schedule: Q04DX003 (ip), vehicle: saline + alcohol 87 % of control | endpoint: median survival time, dose: 270.0 micrograms/kg/injection, schedule: Q04DX003 (ip), vehicle: saline + alcohol 94 % of control | endpoint: median survival time, dose: 324.0 micrograms/kg/injection, schedule: Q04DX003 (ip), vehicle: saline + alcohol 95 % of control | endpoint: median survival time, dose: 450.0 micrograms/kg/injection, schedule: Q04DX003 (ip), vehicle: saline + alcohol 95 % of control | endpoint: median survival time, dose: 540.0 micrograms/kg/injection, schedule: Q04DX003 (ip), vehicle: saline + alcohol 109 % of control | endpoint: median survival time, dose: 648.0 micrograms/kg/injection, schedule: Q01DX001 (ip), vehicle: saline + alcohol 97 % of control | endpoint: median survival time, dose: 750.0 micrograms/kg/injection, schedule: Q04DX003 (ip), vehicle: saline + alcohol 108 % of control | endpoint: median survival time, dose: 1080.0 micrograms/kg/injection, schedule: Q01DX001 (ip), vehicle: saline + alcohol 98 % of control

Nc1cc2[nH]cnc2c(=O)[nH]1
inactive: endpoint: mean survival time, dose: 95.0 mg/kg/injection, schedule: Q01DX009 (ip), vehicle: Klucel (hydroxypropylcellulose) (HPC) 118 % of control | endpoint: mean survival time, dose: 140.0 mg/kg/injection, schedule: Q01DX009 (ip), vehicle: Klucel (hydroxypropylcellulose) (HPC) 90 % of control

CN1CCN(CCCN2c3ccccc3Sc3ccc(C(F)(F)F)cc32)CC1
inactive: [1] 109 % of control | [2] 120 % of control | [3] 109 % of control

CCC1OCC(C(Cl)CCl)O1 (configuration not stated)
inactive: endpoint: median survival time, dose: 3.12 mg/kg/injection, schedule: Q01DX009 (ip), vehicle: saline with Tween-80 103 % of control | [4] 97 % of control | endpoint: median survival time, dose: 12.5 mg/kg/injection, schedule: Q01DX009 (ip), vehicle: Klucel (hydroxypropylcellulose) (HPC) 97 % of control | [5] 108 % of control | [6] 98 % of control | [7] 109 % of control | [8] 97 % of control | [9] 94 % of control | [10] 96 % of control | [11] 109 % of control | [12] 97 % of control

COc1cc(C)c(C2NC(=O)c3ccccc3N2)cc1C (configuration not stated)
inactive: [6] 105 % of control | [8] 97 % of control | [10] 92 % of control | [12] 97 % of control | [13] 101 % of control

Cn1cnc([N+](=O)[O-])c1Sc1nc(N)nc2c1ncn2C1OC(CO)C(O)C1O (configuration not stated)
inactive: [14] 97 % of control | [15] 116 % of control | [16] 105 % of control | endpoint: median survival time, dose: 6.25 mg/kg/injection, schedule: Q01DX009 (ip), vehicle: suspension in saline 107 % of control

Nc1ccn(C2OC(COC(=O)C34CC5CC(CC(C5)C3)C4)C(O)C2O)c(=O)n1 (configuration not stated)
inactive: [5] 116 % of control

CC(=O)O[C@@H]1CO[C@H]2O[C@H]3[C@@H](C(C=O)=C[C@H](O)[C@@H]4C5=C(C(C)C)CC[C@]5(C)CC[C@@]34C)[C@@]2(O)C1=O
inactive: endpoint: median survival time, dose: 0.75 mg/kg/injection, schedule: Q01DX009 (ip), vehicle: Klucel (hydroxypropylcellulose) (HPC) 96 % of control | endpoint: median survival time, dose: 1.5 mg/kg/injection, schedule: Q01DX009 (ip), vehicle: Klucel (hydroxypropylcellulose) (HPC) 107 % of control

Cc1cc(N(CCOS(C)(=O)=O)CCOS(C)(=O)=O)ccc1C=Nc1ccc(-c2nc(Cc3ccccc3)sc2C)cc1
inactive: [6] 117 % of control | [8] 87 % of control

O=CC(O)C(O)C(O)C(O)C(=O)O.[NH-]C1CCCCC1[NH-].[Pt+2] (configuration not stated)
inactive: endpoint: median survival time, dose: 0.1 mg/kg/injection, schedule: Q01DX009 (ip), vehicle: suspension in saline 92 % of control | endpoint: median survival time, dose: 0.2 mg/kg/injection, schedule: Q01DX009 (ip), vehicle: suspension in saline 92 % of control | endpoint: median survival time, dose: 0.39 mg/kg/injection, schedule: Q01DX009 (ip), vehicle: suspension in saline 104 % of control | endpoint: median survival time, dose: 0.78 mg/kg/injection, schedule: Q01DX009 (ip), vehicle: suspension in saline 112 % of control | endpoint: median survival time, dose: 1.56 mg/kg/injection, schedule: Q01DX009 (ip), vehicle: suspension in saline 108 % of control

CC(=O)OCC1OC(n2ncc(=O)[nH]c2=O)C(OC(C)=O)C1OC(C)=O (configuration not stated)
inactive: [10] 100 % of control | [12] 109 % of control | [13] 107 % of control

Nc1ccc(Cl)cc1N
inactive: [5] 92 % of control | [7] 93 % of control | [9] 99 % of control | [11] 104 % of control | endpoint: median survival time, dose: 200.0 mg/kg/injection, schedule: Q01DX009 (ip), vehicle: saline with Tween-80 102 % of control

COC1C(CO)OC(n2cnc3c(=S)nc(N)[nH]c32)C1O (configuration not stated)
inactive: [8] 97 % of control | [10] 108 % of control

O=c1[nH]c(=O)c2nc(-c3cccnc3)cnc2[nH]1
inactive: [3] 102 % of control | [17] 101 % of control | [18] 108 % of control | [19] 100 % of control | [20] 111 % of control | [21] 111 % of control

Cc1cc(/C=C/c2cc[n+](C)c3ccccc23)c(O)c2ncccc12
inactive: [4] 95 % of control | [5] 109 % of control

NC(N)=NC(N)=Nc1ccc(-c2ccc(N=C(N)N=C(N)N)cc2)cc1
inactive: [14] 110 % of control | [15] 110 % of control | [16] 99 % of control | [4] 90 % of control | [5] 113 % of control

CCc1nc(N)nc(N)c1-c1ccc(Cl)c(Cl)c1.[Cl][Pd][Cl]
inactive: [3] 114 % of control

CC(=O)OCC1OC(n2ccc(N)nc2=O)C(OC(C)=O)C1OC(C)=O (configuration not stated)
inactive: [3] 122 % of control | [17] 98 % of control | [18] 109 % of control

O=C(O)c1ccc(C(=O)O)c(C(=O)O)c1.[NH-]C1CCCCC1[NH-].[Pt+2]
inactive: endpoint: median survival time, dose: 0.39 mg/kg/injection, schedule: Q01DX009 (ip), vehicle: sodium bicarbonate 90 % of control | endpoint: median survival time, dose: 0.78 mg/kg/injection, schedule: Q01DX009 (ip), vehicle: sodium bicarbonate 100 % of control | endpoint: median survival time, dose: 1.56 mg/kg/injection, schedule: Q01DX009 (ip), vehicle: sodium bicarbonate 112 % of control | endpoint: median survival time, dose: 3.12 mg/kg/injection, schedule: Q01DX009 (ip), vehicle: sodium bicarbonate 122 % of control

N#CC(=C1SCS1)[N+](=O)[O-]
inactive: endpoint: median survival time, dose: 0.75 mg/kg/injection, schedule: Q01DX009 (ip), vehicle: saline with Tween-80 94 % of control | endpoint: median survival time, dose: 1.5 mg/kg/injection, schedule: Q01DX009 (ip), vehicle: saline with Tween-80 102 % of control | endpoint: median survival time, dose: 3.0 mg/kg/injection, schedule: Q01DX009 (ip), vehicle: saline with Tween-80 102 % of control | endpoint: median survival time, dose: 6.0 mg/kg/injection, schedule: Q01DX009 (ip), vehicle: saline with Tween-80 92 % of control

OCCCN1CCCCC1CO (configuration not stated)
inactive: [3] 100 % of control and 107 % of control | [17] 98 % of control and 110 % of control | [18] 97 % of control and 90 % of control | [19] 91 % of control and 106 % of control | [20] 100 % of control and 107 % of control | [21] 95 % of control and 110 % of control

N[C@H](C(=O)O)[C@@H]1CC(Cl)=NO1
inactive: endpoint: median survival time, dose: 0.5 mg/kg/injection, schedule: Q01DX009 (ip), vehicle: saline 124 % of control | endpoint: median survival time, dose: 1.0 mg/kg/injection, schedule: Q01DX009 (ip), vehicle: saline 103 % of control | endpoint: median survival time, dose: 2.0 mg/kg/injection, schedule: Q01DX009 (ip), vehicle: saline 111 % of control | endpoint: median survival time, dose: 4.0 mg/kg/injection, schedule: Q01DX009 (ip), vehicle: saline 115 % of control

NNC(=S)N/N=C/c1ccccn1
inactive: endpoint: median survival time, dose: 1.56 mg/kg/injection, schedule: Q01DX009 (ip), vehicle: saline 98 % of control | [1] 102 % of control | [2] 107 % of control | [3] 114 % of control

Reference: PubChem BioAssay AID274 (DTP/NCI, 2004)
